pIC50: −log10 of the molar value. Where a SMILES comes first, the peptide text is derived from it. Bridges are numbered along the chain shown (N, C = ends). [ ]: non-standard residue; d: D form. Nle(6-COOH) = N[C@@H](CCCCC(=O)O)C(=O)O; Nle = CCCC[C@H](N)C(=O)O

Common to all, as to assay type: cell-based
Data set [1] can be described thus: Antagonist activity at rat alpha6alpha3beta4 nAChR expressed in Xenopus laevis oocytes assessed as inhibition of Ach-induced response at -70 mV holding potential by two electrode voltage-clamp assay.
Data set [2] deals with T1, Neuronal acetylcholine receptor; alpha3/beta2 (Rattus norvegicus) (UniProt P04757+P12390). The data set can be described thus: Antagonist activity at rat alpha3beta2 nACHR expressed in Xenopus laevis oocytes assessed as Ach-induced current amplitude at 10 nM at -70 mV holding potential by two electrode voltage-clamp assay relative to control.
In data set [3] the target is T1, Neuronal acetylcholine receptor; alpha3/beta2 (Rattus norvegicus). The data set can be described thus: Antagonist activity at rat alpha3beta2 nACHR expressed in Xenopus laevis oocytes assessed as Ach-induced current amplitude at 100 nM at -70 mV holding potential by two electrode voltage-clamp assay relative to control. Further details: scale not given: the % may be the effect or the level left.

For data set [4], the target named is nicotinic acetylcholine receptor alpha6/alpha3/beta2/beta3 (Rattus norvegicus, UniProt P04757+P12390+P12391+P43143). The data set can be described thus: Antagonist activity at rat alpha6alpha3beta2beta3 nAChR expressed in Xenopus laevis oocytes assessed as Ach-induced current amplitude at 10 nM at -70 mV holding potential by two electrode voltage-clamp assay relative to control.
nicotinic acetylcholine receptor alpha6/alpha3/beta2/beta3, sequence (P04757 whole entry): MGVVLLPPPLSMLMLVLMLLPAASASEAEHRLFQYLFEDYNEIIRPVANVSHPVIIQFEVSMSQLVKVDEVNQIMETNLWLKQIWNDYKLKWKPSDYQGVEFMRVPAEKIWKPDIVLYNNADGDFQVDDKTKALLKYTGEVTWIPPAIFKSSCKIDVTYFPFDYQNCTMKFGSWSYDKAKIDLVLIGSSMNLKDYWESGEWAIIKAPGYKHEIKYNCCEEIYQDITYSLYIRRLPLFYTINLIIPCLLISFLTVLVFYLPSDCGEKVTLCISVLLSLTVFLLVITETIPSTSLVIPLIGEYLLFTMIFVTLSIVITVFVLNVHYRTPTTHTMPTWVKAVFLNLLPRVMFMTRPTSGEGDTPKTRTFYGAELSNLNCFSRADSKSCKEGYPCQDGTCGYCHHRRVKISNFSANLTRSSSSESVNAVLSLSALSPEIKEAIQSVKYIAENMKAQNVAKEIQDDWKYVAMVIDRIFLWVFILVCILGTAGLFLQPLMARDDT
nicotinic acetylcholine receptor alpha6/alpha3/beta2/beta3, sequence (P12390 whole entry): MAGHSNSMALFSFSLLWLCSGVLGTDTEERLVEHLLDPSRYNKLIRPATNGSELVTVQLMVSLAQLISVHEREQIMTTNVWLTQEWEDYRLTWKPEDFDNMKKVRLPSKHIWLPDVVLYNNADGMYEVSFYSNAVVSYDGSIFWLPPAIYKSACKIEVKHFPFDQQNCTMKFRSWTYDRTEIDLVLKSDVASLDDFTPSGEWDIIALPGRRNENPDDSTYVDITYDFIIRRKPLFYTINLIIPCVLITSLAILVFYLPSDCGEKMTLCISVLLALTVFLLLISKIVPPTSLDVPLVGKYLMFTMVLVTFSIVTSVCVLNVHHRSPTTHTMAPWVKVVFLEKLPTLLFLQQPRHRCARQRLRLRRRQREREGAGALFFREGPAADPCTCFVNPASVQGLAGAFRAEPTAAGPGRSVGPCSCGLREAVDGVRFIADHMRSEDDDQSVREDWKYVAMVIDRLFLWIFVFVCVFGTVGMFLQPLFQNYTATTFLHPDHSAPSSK
nicotinic acetylcholine receptor alpha6/alpha3/beta2/beta3, sequence (P12391 whole entry): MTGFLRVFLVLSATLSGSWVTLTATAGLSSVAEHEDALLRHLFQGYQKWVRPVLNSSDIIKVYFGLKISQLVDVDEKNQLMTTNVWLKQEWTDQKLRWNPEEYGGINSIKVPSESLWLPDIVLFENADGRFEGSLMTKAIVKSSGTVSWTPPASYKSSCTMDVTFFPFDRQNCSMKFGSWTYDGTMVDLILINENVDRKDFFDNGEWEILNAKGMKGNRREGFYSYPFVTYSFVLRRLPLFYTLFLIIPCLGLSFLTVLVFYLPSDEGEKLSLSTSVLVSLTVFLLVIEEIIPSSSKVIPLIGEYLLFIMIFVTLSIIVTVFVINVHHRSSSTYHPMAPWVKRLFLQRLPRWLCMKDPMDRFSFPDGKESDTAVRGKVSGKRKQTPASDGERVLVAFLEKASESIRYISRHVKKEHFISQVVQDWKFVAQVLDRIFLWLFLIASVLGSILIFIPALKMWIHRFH
nicotinic acetylcholine receptor alpha6/alpha3/beta2/beta3, sequence (P43143 whole entry): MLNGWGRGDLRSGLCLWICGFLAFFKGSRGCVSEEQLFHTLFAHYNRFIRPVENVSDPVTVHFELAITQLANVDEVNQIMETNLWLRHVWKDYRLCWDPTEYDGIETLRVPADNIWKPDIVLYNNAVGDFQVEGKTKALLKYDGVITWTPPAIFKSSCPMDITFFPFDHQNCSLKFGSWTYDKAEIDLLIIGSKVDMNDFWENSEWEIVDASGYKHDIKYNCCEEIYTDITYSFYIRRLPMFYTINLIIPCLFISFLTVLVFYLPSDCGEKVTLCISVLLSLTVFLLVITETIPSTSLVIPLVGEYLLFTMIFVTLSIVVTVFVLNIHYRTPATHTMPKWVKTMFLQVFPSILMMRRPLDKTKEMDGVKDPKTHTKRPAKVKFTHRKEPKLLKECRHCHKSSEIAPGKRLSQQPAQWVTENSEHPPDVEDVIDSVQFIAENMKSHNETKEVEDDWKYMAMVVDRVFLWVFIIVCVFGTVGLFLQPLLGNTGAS

With `CC[C@H](C)[C@@H]1NC(=O)[C@H](CCC(=O)O)NC(=O)[C@@H]2CCCN2C(=O)[C@H](Cc2cnc[nH]2)NC(=O)[C@H](CCCCC(=O)O)NC(=O)[C@H]([C@@H](C)CC)NC(=O)[C@H](Cc2cnc[nH]2)NC(=O)[C@@H]2CSSC[C@H](NC(=O)CN)C(=O)N[C@@H](CSSC[C@@H](C(N)=O)NC1=O)C(=O)N[C@@H](CO)C(=O)N[C@@H](Cc1cnc[nH]1)C(=O)N1CCC[C@H]1C(=O)N[C@@H](C)C(=O)N2` (H-GCCSHPACHI[Nle(6-COOH)]HPEIC-NH2; disulfide 2-8, 3-16), the pIC50 in data set [1] is 7.11. Turning to `CC[C@H](C)[C@@H]1NC(=O)[C@H](Cc2cnc[nH]2)NC(=O)[C@@H]2CSSC[C@H](NC(=O)CN)C(=O)N[C@@H](CSSC[C@@H](C(N)=O)NC(=O)[C@H](CC(C)C)NC(=O)[C@H](CCC(=O)O)NC(=O)[C@@H]3CCCN3C(=O)[C@H](Cc3cnc[nH]3)NC(=O)[C@H](CCCCC(=O)O)NC1=O)C(=O)N[C@@H](CO)C(=O)N[C@@H](Cc1cnc[nH]1)C(=O)N1CCC[C@H]1C(=O)N[C@@H](C)C(=O)N2` (H-GCCSHPACHI[Nle(6-COOH)]HPELC-NH2; disulfide 2-8, 3-16), in data set [1], the pIC50 was 7.37.

Turning to `CCCC[C@@H]1NC(=O)[C@H](Cc2cnc[nH]2)NC(=O)[C@@H]2CSSC[C@H](NC(=O)CN)C(=O)N[C@@H](CSSC[C@@H](C(N)=O)NC(=O)[C@H]([C@@H](C)CC)NC(=O)[C@H](CCC(=O)O)NC(=O)[C@@H]3CCCN3C(=O)[C@H](Cc3cnc[nH]3)NC(=O)[C@H](CCCCC(=O)O)NC1=O)C(=O)N[C@@H](CO)C(=O)N[C@@H](Cc1cnc[nH]1)C(=O)N1CCC[C@H]1C(=O)N[C@@H](C)C(=O)N2` (H-GCCSHPACH[Nle][Nle(6-COOH)]HPEIC-NH2; disulfide 2-8, 3-16), the inhibition in data set [2] was determined as 8%. Also, the Activity in data set [3] amounted to 2%. Moreover, the negative logarithm of the IC50 (pIC50) in data set [1] was 6.69. Also, the inhibition at 0.01 µM in data set [4] is 90%.

With `CCCC[C@@H]1NC(=O)[C@H](Cc2cnc[nH]2)NC(=O)[C@@H]2CSSC[C@H](NC(=O)CN)C(=O)N[C@@H](CSSC[C@@H](C(N)=O)NC(=O)[C@H](CC(C)C)NC(=O)[C@H](CCC(=O)O)NC(=O)[C@@H]3CCCN3C(=O)[C@H](Cc3cnc[nH]3)NC(=O)[C@H](CCCCC(=O)O)NC1=O)C(=O)N[C@@H](CO)C(=O)N[C@@H](Cc1cnc[nH]1)C(=O)N1CCC[C@H]1C(=O)N[C@@H](C)C(=O)N2` (H-GCCSHPACH[Nle][Nle(6-COOH)]HPELC-NH2; disulfide 2-8, 3-16), the pIC50 in data set [1] is 6.92.
